{"source": "patent US6495537B1", "about": "“Method for inhibition of photocarcinogenesis or photoimmunosuppression using niacin” (University of Kentucky Research Foundation, priority 1998, dated 2002)", "key": {"UVM12 tumor cells": {"tested_on": "UVM12 tumor cells", "settings": "32 days after tumor challenge, 0% niacin 91.6, unirradiated control 21.9", "method": "(§1) The mice were exposed to UV radiation after three weeks of oral niacin administration. The animals were shaved dorsally with animal clippers each week. The filter tops, food, and water bottles were removed from the microisolators while mice were exposed to UV radiation emitted by banks of six FS40 Westinghouse fluorescent sun lamps for 30 min per day, five days per week. This UV regimen continued for 22 weeks in the carcinogenesis experiments, and for 11 weeks in the passive transfer assay experiments. The cages were systemically rotated during the study to compensate for any differences in flux at different positions under the lamps. The FS40 lamps emit a continuous spectrum from 270 to 390 nm with peak emission at 313 nm. About 75% of the energy output is in the wavelength range of 280-340 nm with about 23% in the 340-390 nm range. The total UVB radiation dose was approximately 1.41×10^6 Jm^−2 in the carcinogenesis experiments, and about […] in the passive transfer experiments, as measured with a UVX Digital Radiometer with a UVX-31 sensor (Ultraviolet Products, San Gabriel, Calif.).\n(§2) Differences in primary tumor incidence between the experimental groups were analyzed by the Wilcoxon rank sum test. […] For the NAD assay, the Q test was first applied to the data to determine whether questionable values should be rejected. This test was conducted at the 95% confidence level. The data were then analyzed using the MIXED procedure in the statistical analysis program SAS 6.11. […] In this manner, it was possible to first account for differences and variability in duplicate or triplicate samples from the same mouse before the differences between each mouse in each group was compared. This procedure resulting in more precise group means than if each single value carried equal weight. Least-squares means for each group were calculated, and a multiple comparison between these means was made after applying a Tukey-Kramer adjustment for the p-values."}, "UV-induced skin tumors": {"tested_on": "UV-induced skin tumors", "settings": "for number of tumors per mouse: 26.5 weeks after first UV treatment, basal diet 0.72; for skin tumor incidence: UV-irradiated mice, 26.5 weeks after first UV exposure, unsupplemented 68%", "method": "Six-week-old specific-pathogen-free female BALB/cAnNTacfBR (H-2^d) mice were purchased from Taconic Laboratory Animals (Germantown, N.Y.) and quarantined from two weeks before treatment. Animals were housed in microisolators under barrier conditions with a 12:12-hour light-dark cycle at 20+/−2° C. (SD).\n(§3) Groups of 25 mice each received the basal diet which consisted of the American Institute of Nutrition 76A rodent diet containing 10% corn oil and 30 mg niacin per kilogram diet, supplemented with 0, 0.1, 0.5, or 1.0% niacin (Dyets Inc. Bethlehem, Pa.). All diets were pelleted (Dyets Inc.) without heat or steam and stored under refrigeration for less than 10 weeks. Animals were fed ad libitum and given fresh diet three times per week for three weeks before UV treatments began, and throughout the study. Niacin intakes were calculated from the diet consumed. Animals were supplied with sterilized water ad libitum.\nas §1, §2\nGroups of 25 mice each were fed the AIN76A rodent diet containing 10% corn oil and 30 mg niacin per kilogram diet, supplemented with 0, 0.1, 0.5, or 1.0% niacin. After three weeks of this diet, dorsally shaved mice were exposed to UV radiation for 30 min per day, five days per week for 22 weeks."}, "skin NAD": {"tested_on": "skin NAD", "method": "as §2"}, "[1]": {"settings": "for Body Weight: mean; for Food Consumed: mean (SD)", "method": "as §3\nNiacin ingestion was calculated from diet consumption recorded on 50% of the animals of each group."}, "[2]": {"settings": "diet supplemented with 0.1% niacin"}}, "note": "Like-named read-outs stand apart in the source and are kept apart here."}
{"smiles": "O=C(O)c1cccnc1", "note": "[niacin]", "values": [{"measurement": "mean tumor size", "setting": "UVM12 tumor cells; recipients of splenocytes from UVB-irradiated donors on 0.1% niacin", "result": "79.8(+/−11.5) sq mm"}, {"measurement": "mean tumor size", "setting": "UVM12 tumor cells; recipients of splenocytes from UVB-irradiated donors on 0.5% niacin", "result": "41.9 (+/−11.7) sq mm"}, {"measurement": "mean tumor size", "setting": "UVM12 tumor cells; recipients of splenocytes from UVB-irradiated donors on 1.0% niacin", "result": "13.2(+/−4.1) sq mm"}, {"measurement": "number of tumors per mouse", "setting": "UV-induced skin tumors; [2]", "result": 0.6, "unit": "%"}, {"measurement": "skin tumor incidence", "setting": "UV-induced skin tumors; [2]", "result": 60, "unit": "%"}, {"measurement": "number of tumors per mouse", "setting": "UV-induced skin tumors; diet supplemented with 0.5% niacin", "result": 0.48, "unit": "%"}, {"measurement": "skin tumor incidence", "setting": "UV-induced skin tumors; diet supplemented with 0.5% niacin, p=0.0257", "result": 48, "unit": "%"}, {"measurement": "number of tumors per mouse", "setting": "UV-induced skin tumors; diet supplemented with 1.0% niacin", "result": 0.4, "unit": "%"}, {"measurement": "skin tumor incidence", "setting": "UV-induced skin tumors; diet supplemented with 1.0% niacin, p=0.0257", "result": 28, "unit": "%"}, {"measurement": "skin NAD content vs UV-irradiated mice receiving no additional niacin", "setting": "skin NAD; 0.5% niacin supplementation, p<0.0001 dorsal skin, p=0.0114 ventral skin", "result": "significantly higher skin NAD content"}, {"measurement": "skin NAD content vs UV-irradiated mice receiving no additional niacin", "setting": "skin NAD; 1.0% niacin supplementation, p=0.0025 dorsal skin, p=0.0017 ventral skin", "result": "significantly higher skin NAD content"}, {"measurement": "body weights of UV-irradiated mice, with or without supplemental niacin", "setting": "[1]; 0.1, 0.5 or 1.0% niacin diets vs basal diet", "result": "similar"}, {"measurement": "Body Weight", "setting": "[1]; +UV +0.1% niacin diet", "result": 18.2, "unit": "grams"}, {"measurement": "Food Consumed", "setting": "[1]; +UV +0.1% niacin diet", "result": "2.47 (0.54) g/mouse/day"}, {"measurement": "Body Weight", "setting": "[1]; +UV +0.5% niacin diet", "result": 18.07, "unit": "grams"}, {"measurement": "Food Consumed", "setting": "[1]; +UV +0.5% niacin diet", "result": "2.77 (0.66) g/mouse/day"}, {"measurement": "Body Weight", "setting": "[1]; +UV +1% niacin diet", "result": 18.55, "unit": "grams"}, {"measurement": "Food Consumed", "setting": "[1]; +UV +1% niacin diet", "result": "2.88 (0.60) g/mouse/day"}]}
